Data as given in paper PMC11355249, “In Silico Identification and Molecular Mechanism of Novel Tyrosinase Inhibitory Peptides Derived from Nacre of Pinctada martensii” (Marine Drugs, 2024).
Where two headings read alike, the source gives them in different places. Peptide text beside a SMILES is read from it.

What was measured:
[1] = target: T1, tyrosinase (from Mushroom) (Agaricus bisporus, UniProt C7FF04); assay type: biochemical; conditions: read-out: IC50 (mM), tyrosinase activity
Description: (§1) We followed the method of Yu, with a slight modification. L-tyrosine solution (0.5 mg/mL), sample solution, and PBS buffer were sequentially added into the 96-well plate, thoroughly mixed, and then incubated at 37 °C for 10 min, then 20 μL of tyrosinase solution (500 U/mL) was added into each well, followed by immediate placement into the enzyme marker after the reaction at 37 °C for (10 min ± 5 s). The results were analyzed at 475 nm. DPPH and ABTS free-radical-scavenging capacity assays were conducted using kits from Grace Biotechnology Co., Ltd. (Jiangsu, China).

[2] = tested on: B16F10 cells; experiment: Intracellular ROS content; assay type: cell-based, mouse; conditions: B16F10, 75 μM
Description: (§2) The cell culture and treatment methods were the same as those described in Section 3.12. The activities of catalase (CAT), glutathione peroxidase (GSH-Px), and superoxide dismutase (SOD) were determined using the assay kit from Nanjing Jianjian Bioengineering Research Institute (Nanjing, China). The ROS content was determined using the method provided by Biyuntian Bio-Technology Company Limited (Shanghai, China).

[3] = tested on: B16F10 cells; experiment: Cell viability, CCK-8 assay; assay type: cell-based, mouse; conditions: 15–1200 μM, 48 h
Description: The B16F10 cells were obtained from FengHui Biotechnology Co., Ltd. (Hunan, China). B16F10 cell cultures from generations 10–25 were grown in medium (DMEM supplemented with 10% fetal bovine serum, 1% antibiotic–antifungal solution) in a 5% CO2 incubator at 37 °C.
Cell viability was assessed using the Cell Counting Kit-8 (CCK-8) assay. During the logarithmic growth phase, 100 µL of cell suspension was dispensed into 96-well plates, with 3000 cells per well, and the supernatant was removed after incubation at 37 °C for 24 h. Wells containing 100 µL of medium served as blank controls. Determination of viability after 48 h of sample treatment.

[4] = target: T1, tyrosinase (from Mushroom); experiment: Inhibition kinetics, Lineweaver-Burk double inverse plot and secondary plots; assay type: biochemical; conditions: read-out: inhibition constant on the free enzyme, Ki; substrate L-tyrosine; peptide 0, 0.3, 0.6, 1.2 mM
From the text: Based on the observation that the inhibition of tyrosinase by the synthetic peptide AHYYD was reversible, the type of inhibition was further elucidated by constructing a Lineweaver–Burk double inverse plot of the enzymatic reaction rate against the concentration of the substrate (L-tyrosine). In this plot, the intercept with the Y-axis represents 1/Vmax, while the intercept with the X-axis represents −1/Km. […] The slope of the line increased with the rise in synthetic peptide concentration, indicating a mixed type of inhibition. By using the quadratic plotting method, the slopes of the four straight lines in the Lineweaver–Burk double inverse plot were plotted against the synthetic peptide concentration.
Keeping the L-tyrosine concentration constant at 0.5 mg/mL, the concentrations of the synthetic peptide and tyrosinase were varied. The change in the OD475 absorbance value was continuously monitored at 37 °C after mixing. The enzyme concentration is plotted on the horizontal axis, while the rate of absorbance change is plotted on the vertical axis. Under the conditions of varying the peptide concentration and substrate concentration while keeping the tyrosinase solution constant, the reciprocal of the substrate concentration was plotted on the horizontal axis, and the reciprocal of the rate of absorbance change was plotted on the vertical ax.

[5] = tested on: melanin content of B16F10 cells; experiment: Melanin content determination; assay type: cell-based, mouse; conditions: B16F10, Kojic acid 350 μM, 48 h
Description: The cell culture stage for melanin content determination was as follows: the cells were washed twice with PBS buffer after 48 h of peptide treatment. Trypsin digestion was performed, and the cells were collected. The […] was removed by centrifugation for 5 min and the precipitate was lysed by dissolving it in 1 mol/L NaOH containing 10% DMSO for 1 h at 80 °C. Subsequently, the cell lysate was centrifuged at 12,000 rpm for 10 min. A total of 200 µL of the supernatant was transferred to a 96-well plate, and the absorbance was measured at 405 nm. The melanin content was then expressed as a percentage of the control group.

[6] = tested on: B16F10 cells; experiment: Antioxidant enzyme activity (CAT, GSH-Px, SOD) by kit; assay type: cell-based, mouse; conditions: B16F10, positive control 350 μM
Description: as §2

[7] = tested on: tyrosinase activity in B16F10 cells; experiment: Intracellular tyrosinase activity (L-DOPA, 475 nm); assay type: cell-based, mouse; conditions: B16F10, Kojic acid 350 μM, 48 h
Description: The cells in the logarithmic growth phase were seeded at a density of 2 × 10^5 cells per well in 6-well plates. After 24 h of culture, the supernatant was removed. […] After 48 h of incubation, the cells were lysed, and the cell lysates were centrifuged at 12,000 rpm for 10 min. The reaction mixture consisted of 50 µL of cell lysate supernatant, 50 µL of 1 mg/mL L-DOPA, and 50 µL of PBS buffer. The mixture was incubated at 37 °C for 1 h. The […] formation level was then measured spectrophotometrically at 475 nm. Tyrosinase activity was expressed as a percentage of the blank control.

[8] = ABTS free-radical-scavenging capacity assay (kit); conditions: synthetic peptides
Description: as §1

T1 sequence (C7FF04 1-392): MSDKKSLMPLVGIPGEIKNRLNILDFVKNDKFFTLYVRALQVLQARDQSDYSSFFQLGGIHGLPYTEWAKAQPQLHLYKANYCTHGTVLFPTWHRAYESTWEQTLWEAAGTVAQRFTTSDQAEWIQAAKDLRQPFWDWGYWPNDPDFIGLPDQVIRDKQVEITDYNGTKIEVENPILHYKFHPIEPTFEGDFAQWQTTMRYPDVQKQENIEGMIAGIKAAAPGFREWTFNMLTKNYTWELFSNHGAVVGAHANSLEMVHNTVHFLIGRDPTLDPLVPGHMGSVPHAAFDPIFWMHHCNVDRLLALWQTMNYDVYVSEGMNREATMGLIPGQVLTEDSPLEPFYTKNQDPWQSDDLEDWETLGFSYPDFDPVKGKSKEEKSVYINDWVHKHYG

CC[C@H](C)[C@H](NC(=O)[C@@H]1CCCN1C(=O)[C@@H](N)CCCCN)C(=O)N[C@@H](Cc1c[nH]c2ccccc12)C(=O)N[C@H](C(=O)O)[C@@H](C)O [KPIWT, Lys-Pro-Ile-Trp-Thr] (H-KPIWT-OH; N-terminus and C-terminus assumed)
IC50 ([1]; synthetic peptides, Kojic acid positive control): > 10 mM

CC1=C(/C=C/C(C)=C/C=C/C(C)=C/C(=O)O)C(C)(C)CCC1 [tretinoin]
intracellular ROS levels, % of the untreated group [2]: 65.44%

C[C@H](N)C(=O)N[C@@H](Cc1c[nH]cn1)C(=O)N[C@@H](Cc1ccc(O)cc1)C(=O)N[C@@H](Cc1ccc(O)cc1)C(=O)N[C@@H](CC(=O)O)C(=O)O [AHYYD, Ala-His-Tyr-Tyr-Asp] (H-AHYYD-OH)
IC50 [1]: 2.01 ± 0.088 mM
viability of B16F10 cells compared to the control group [3]: no significant difference
Ki [4]: 601 µM

O=c1cc(CO)occ1O [Kojic acid]
reduction of intracellular melanin content [5]: 18.54%
increase of GSH-Px activity [6]: 52.85%
increase of SOD activity [6]: 68.92%
reduction of intracellular tyrosinase activity [7]: 19.51%

C[C@@H](O)[C@H](N)C(=O)N[C@@H](Cc1ccccc1)C(=O)N[C@@H](CO)C(=O)NCC(=O)N[C@@H](CC(N)=O)C(=O)N[C@@H](Cc1ccc(O)cc1)C(=O)N1CCC[C@H]1C(=O)O [TFSGNYP, Thr-Phe-Ser-Gly-Asn-Tyr-Pro] (H-TFSGNYP-OH)
IC50 for ABTS clearance [8]: 278.5 µg/mL
IC50 [1]: > 5 mM
